Assay [1] concerns gastric cancer organoids. Nature of the assay: Drug cytotoxicity, CellTiter-Glo cell viability and bright field images, organoids. The format is cell-based, human. To be noted: for cell death: targeted drugs at concentrations found in peripheral blood (crizotinib 1 μM, osimertinib 0.8 μM, afatinib 0.150 μM); for effect on viability: targeted drugs, 72 hours (dasatinib 0.180 μM, gefitinib 3 μM, imatinib 4 μM, capmatinib 8 μM). Here is the method: (§1) Organoids and stroma cells isolation and culture: Human gastric cancer along with surrounding normal tissue were obtained from a consenting patient undergoing surgery at Ichilov Hospital, with approval from the Institutional Review Board. The samples were transported in cold hypothermosol medium and processed within 24 hours post-surgery. Upon acquisition, the tumor tissue was divided into three equal parts for various analyses. One third was snap-frozen for subsequent DNA isolation, another third was fixed in 4% paraformaldehyde for histological examination, and the remaining portion was prepared for cell culture. The tissue underwent digestion using Collagenase I (1 mg/ml), Liberase, and DNAse (10 ug/ml), followed by separation into organoids and stroma cell cultures. Organoids were cultured as previously described hereinbelow, with medium replacement twice weekly and passaging via mechanical and enzymatic dissociation using TrypLE enzyme. Stroma cells were cultured in mesenchymal stem cell medium (MSCM) on pre-coated Matrigel (20%) and fibronectin (2 μg/cm2) 4-well dish plates. Upon reaching 80% confluency the cells were subculturing using accutase to 6 well plate and then to 25 cm flask. From passage 3 onwards, cells were sub-cultured in 25 cm flask and then in 75 cm flasks using MSCM, endothelial cell medium (ECM), or fibroblast medium (FM-2) for subsequent passages. Bright field images were obtained using Operetta High Content Screening System or Leica microscope.
(§2) Cell viability assay: To assess co-culture growth rates and the cytotoxic effects of various drugs, a luminescent cell viability assay was conducted using the CellTiter-Glo kit from Promega following the manufacturer's guidelines. For the drug cytotoxicity assay, co-cultures or organoids were seeded in 384-well plates and allowed to organize for 48 hours. […] The chosen drug concentrations were based on their higher plasma concentration values. Following treatment, each well containing co-cultures or organoids was lysed using CellTiter-Glo reagents, thoroughly mixed, and incubated for 30 minutes, after which luminescence was measured.
(In general: ATP-based viability assays read luminescence as a measure of living cells.)

The test system of assay [2] is ECM:FM2:ORG co-cultures (TECs:TASCs:Org). Nature of the assay: Drug cytotoxicity, CellTiter-Glo cell viability and bright field images, organoid-stroma cell co-cultures. The format is cell-based, human. To be noted: for effect on viability: co-culture, targeted drugs, 72 hours (afatinib 0.150 μM, osimertinib 0.8 μM, dasatinib 0.180 μM, gefitinib 3 μM, imatinib 4 μM, capmatinib 8 μM). Here is the method:
Organoid-stroma cells co-culture: Initially, organoids were mechanically dissociated into smaller fragments through pipetting, followed by enzymatic digestion into single cells using dispase II at 37° C. for 20 minutes. Concurrently, stroma cells cultured in FM-2, ECM, and MSCM, as well as Huvec cells cultured in ECM, were harvested at 80% confluency in the flask and dissociated using accutase. In certain experiments, after cells dissociation, each cell population was stained with a vital dye before their co-culture. Cells cultured in ECM and Huvec cell lines were stained blue using the CellTrace Violet Dye Proliferation Kit. […] Imaging was performed at 10× magnification using an Olympus Confocal Microscope. Subsequently, dissociated cells were mixed in 35 ul of co-culture medium, at ratios of 1:1:1, 1:4:1, 4:1:1 and 1:1:4 of Huvec or cells cultured in ECM, cells cultured in FM2 and organoids respectively. Co-cultures composed of ECM:organoids (ORG), FM2:ORG, and Huvec:ORG were also created at 1:1, 1:4, and 4:1 ratios, respectively. Each mix, containing 4000 cells, was then co-cultured in 384 wells low repellent plates, with DMEM/F12 medium supplemented with 10 mM HEPES, abam, 2 mM glutamax, non-essential amino acids, sodium pyruvate, 500 ng ml-1 R-spondin, 100 ng ml-1 noggin, 100 ng ml-1 Wnt3A, 10 nM gastrin, Prostaglandin E2, 100 ng ml-1 IGF1, 10 ng·ml-1 FGF2, 10 ng·ml-1 FGF10, 50 ng·ml-1 EGF, B27, 0.5 μM A 83-01, 4 mM nicotinamide, 10 μM Y-27632, 1 μg ml-1 hydrocortisone, 50 μg ml-1 ascorbic acid, 5 ng ml-1 VEGF and 100 ng ml-1 IL-6, 4 μg ml-1 heparin, and 5% fetal calf serum in 10 ng·ml-1 and fibronectin and 5% Matrigel as scaffold and incubated in 5% CO2 at 37° C. for different intervals of time.
as §2

The subject of assay [3] is stroma cell monocultures. The assay is described as follows: Drug cytotoxicity, CellTiter-Glo cell viability, stroma cell monocultures. The format is cell-based, human. As to conditions: stroma cells monocultures, targeted drugs, 72 hours (dasatinib 0.180 μM, imatinib 4 μM, capmatinib 8 μM). Here is the method: as §1, with “Stroma cells were cultured in mesenchymal stem cell medium (MSCM) on pre-coated Matrigel (20%) and fibronectin (2 μg/cm2) 4-well dish plates. Upon reaching 80% confluency the cells were subculturing using accutase to 6 well plate and then to 25 cm flask. From passage 3 onwards, cells were sub-cultured in 25 cm flask and then in 75 cm flasks using MSCM, endothelial cell medium (ECM), or fibroblast medium (FM-2) for subsequent passages. Bright field images were obtained using Operetta High Content Screening System or Leica microscope.” left out
(§3) Cell viability assay: To assess co-culture growth rates and the cytotoxic effects of various drugs, a luminescent cell viability assay was conducted using the CellTiter-Glo kit from Promega following the manufacturer's guidelines. […] Following treatment, each well containing co-cultures or organoids was lysed using CellTiter-Glo reagents, thoroughly mixed, and incubated for 30 minutes, after which luminescence was measured.

Assay [4] concerns pancreas organoids. Nature of the assay: Celltiter-Glo viability of drug treated pancreas organoids. The format is cell-based, human. To be noted: 72 hours treatment. How it is done: (§4) FIGS. 10A-10B: (10A) Representative immunofluorescence and brightfield images of human pancreas tumor avatar composed of Huvec endothelial cells, Org and TASCs mix at a 1:1:1, 1:4:1 or 4:1:1 ratio, respectively cultivated in a Matrigel (5%) and fibronectin scaffold (10 ng/ml), during 6 days. Org were stained with Cell Vue Claret far red fluorochrome (purple cells). Cell viability was assessed by Calcein (green)/PI (red) staining and images were acquired with Operetta Imager at 5× magnification. (10B) Line graphs showing relative light unit percentage (RLU %) of everolimus or FOLFOX treated pancreas tumor avatars and organoids as compared with their respective vehicle controls, after the same day of drug or vehicle exposure, (RLU %=RLUtreatment*100)/RLUveh). Tumor avatars were cultured for 3 days, treated with the specified drugs for other 72 hours and viability determined by Celltiter-Glo assay.
(§5) Next, the inventors aimed to examine a tumor avatar model, composed of pancreas tumor epithelial cells, TASCs and Huvec cells, cultured in the presence of a Matrigel and fibronectin scaffold. Huvec, TASCs and […] organoid-derived tumor epithelial cells clusters (5-15 cells/cluster) were seeded at different ratios (1:1:1, 1:4:4 or 4:1:4 respectively) and cultured for 6 days. Tumor cells, labelled with CellVue Claret far red fluorochrome localized in the interior of the tumor avatar.

The subject of assay [5] is human pancreas tumor avatar. The assay is described as follows: Celltiter-Glo viability of drug treated pancreas tumor avatars. The format is cell-based. As to conditions: pancreas tumor avatars (Huvec, TASCs, Org), cultured 3 days, treated 72 hours. How it is done: as §4, §5
Assay [6] relates to HUVEC:FM-2:ORG co-cultures. The assay is described as follows: Drug cytotoxicity, CellTiter-Glo cell viability, co-cultures containing Huvec cells. The format is cell-based, human. As to conditions: paclitaxel 5 μM, 72 hours. Here is the method: Organoid-stroma cells co-culture: Initially, organoids were mechanically dissociated into smaller fragments through pipetting, followed by enzymatic digestion into single cells using dispase II at 37° C. for 20 minutes. Concurrently, stroma cells cultured in FM-2, ECM, and MSCM, as well as Huvec cells cultured in ECM, were harvested at 80% confluency in the flask and dissociated using accutase. In certain experiments, after cells dissociation, each cell population was stained with a vital dye before their co-culture. Cells cultured in ECM and Huvec cell lines were stained blue using the CellTrace Violet Dye Proliferation Kit. […] Imaging was performed at 10× magnification using an Olympus Confocal Microscope. Subsequently, dissociated cells were mixed in 35 ul of co-culture medium, at ratios of 1:1:1, 1:4:1, 4:1:1 and 1:1:4 of Huvec or cells cultured in ECM, cells cultured in FM2 and organoids respectively. […]
as §3

Assay [7] has as its system patient 1 (gastrointestinal sarcoma) and patient 2 (gastric adenocarcinoma). Nature of the assay: Administration to the patients. To be noted: both patients. The format is in vivo, human.
Assay [8] concerns human gastric tumor avatars in the presence of lymphocytes. Nature of the assay: Cell-Titer Glo viability of gastric tumor avatars with peripheral blood lymphocytes. The format is cell-based. To be noted: avatars of patient 1 and patient 2 with autologous lymphocytes, various concentrations, 72 hours. From the text:
FIGS. 12A-12F: (12A) Representative brightfield images of human gastric tumor avatars from a patient with gastrointestinal sarcoma (patient 1) and a second patient (patient 2) with gastric adenocarcinoma, composed of organoids and stroma cells. Cells were dissociated from gastric tissue and cultured in a Matrigel dome in an adherent plate in tumor avatar medium from day 0. After 7 days of culture, organoids remain in the dome and stroma cells and metastatic tumor cells invaded the tissue culture plate outside the dome. […] (12B) Representative brightfield images of defrosted human gastric tumor avatars from defrosted tumor avatars. The tumor avatars were sub-cultured in a Matrigel dome using an adherent plate in the presence of tumor avatar medium from day 3 to day 13. […] (12C-12D). Representative brightfield images of human gastric tumor avatars from a patient with gastrointestinal sarcoma (patient 1) and a second patient (patient 2) with gastric adenocarcinoma, composed of organoids and stroma cells. […] Cell viability was detected after 72 hours of treatment using Cell-Titer Glo assay.
Lymphocytes were isolated from the peripheral blood of patient 1 and patient 2. […] Pembrolizumab was added at various concentrations to the tumor avatars and cell viability was monitored for 72 hours after treatment using the Cell-Titer Glo assay.

Take `CN(C)C/C=C/C(=O)Nc1cc2c(Nc3ccc(F)c(Cl)c3)ncnc2cc1O[C@H]1CCOC1` [afatinib]: the cell death entry in assay [1] (organoids, 72 hours) is on record as “approximately 50%”.

For `CNC(=O)c1ccc(-c2cnc3ncc(Cc4ccc5ncccc5c4)n3n2)cc1F` [capmatinib], the “effect on viability” value in assay [1] (organoids) is on record as “neither the organoids nor the co-culture showed significant response”; in assay [2], “neither the organoids nor the co-culture showed significant response”; in assay [3] it was “decreased viability”.

As for `C[C@@H](Oc1cc(-c2cnn(C3CCNCC3)c2)cnc1N)c1c(Cl)ccc(F)c1Cl` [crizotinib], the cell death entry in assay [1] (organoids, 72 hours) is “more than 50%”; in assay [2] (stroma cells-organoid co-cultures, crizotinib 1 μM, 72 hours), “more than 50%”.

In the case of `CO[C@H]1C[C@@H]2CC[C@@H](C)[C@@](O)(O2)C(=O)C(=O)N2CCCC[C@H]2C(=O)O[C@H]([C@H](C)C[C@@H]2CC[C@@H](OCCO)[C@H](OC)C2)CC(=O)[C@H](C)/C=C(\C)[C@@H](O)[C@@H](OC)C(=O)[C@H](C)C[C@H](C)/C=C/C=C/C=C/1C` [everolimus], the “effect of treatment on viability (RLU %)” value in assay [4] and in assay [5] was “neither the organoids nor the tumor avatar models were affected” in each case.

Consider `COc1cc2ncnc(Nc3ccc(F)c(Cl)c3)c2cc1OCCCN1CCOCC1` [gefitinib], for which the “effect on viability” value in assay [1] (organoids) and in assay [2] was “neither the organoids nor the co-culture showed significant response” throughout.

For `Cc1ccc(NC(=O)c2ccc(CN3CCN(C)CC3)cc2)cc1Nc1nccc(-c2cccnc2)n1` [imatinib], the “effect on viability” value in assay [1] (organoids) is reported as “neither the organoids nor the co-culture showed significant response”; in assay [2], “neither the organoids nor the co-culture showed significant response”; in assay [3], “decreased viability”.

Turning to `C=CC(=O)Nc1cc(Nc2nccc(-c3cn(C)c4ccccc34)n2)c(OC)cc1N(C)CCN(C)C` [osimertinib], the cell death entry in assay [1] (organoids, 72 hours) is “approximately 50%”. In addition, the “effect on viability” value in assay [2] is recorded as “resistant”.

Consider `CC(=O)O[C@H]1C(=O)[C@@]2(C)[C@H]([C@H](OC(=O)c3ccccc3)[C@]3(O)C[C@H](OC(=O)[C@H](O)[C@@H](NC(=O)c4ccccc4)c4ccccc4)C(C)=C1C3(C)C)[C@]1(OC(C)=O)CO[C@@H]1C[C@@H]2O` [paclitaxel], for which the cell death entry in assay [6] is given as “approximately 10%”; in assay [2] (TECs:TASCs:Org ratio 1:1:4, paclitaxel 5 μM, 72 hours), 22%; in assay [2] (TECs:TASCs:Org ratios 1:1:1, 4:1:1 and 1:4:1, paclitaxel 5 μM, 72 hours), “approximately 40%”. For the same molecule, the cytotoxicity at 5 µM in assay [1] (Homo sapiens, 72 h, read-out: decrease in cell viability) stood at 53%. The “size and integrity in bright field images” value was “reduced the size and affected the integrity” in assay [1] (organoids, paclitaxel 5 μM, 72 hours); “reduced the size and affected the integrity” in assay [2] (co-cultures, paclitaxel 5 μM, 72 hours).

Consider “Pembrolizumab: Pembrolizumab immunotherapy”, for which the patient response entry in assay [7] is given as “both respond”. In addition, in assay [8], the “effectiveness (cell viability)” value is given as “effective”.

(Values after patent US20260117192A1, “METHODS OF PRODUCING A TUMOR AVATAR” (ARIEL SCIENTIFIC INNOVATIONS LTD., priority 2023, published 2026).)
